Reference: US20060252807A1, “Novel ortho-terphenyl inhibitors of p38 kinase and methods of treating inflammatory disorders” (Kalypsys, Inc., priority 2005, published 2006)

biological target: T1, active p38 alpha enzyme (Upstate Biotechnology) (Homo sapiens, UniProt Q16539); test: p38α biochemical assay (ATP turnover, luminescent detection, Cambrex PKlight); settings: p38α biochemical assay, Table 1 Biological Activity
T1 construct: purchased Upstate Biotechnology
Procedure: The p38α biochemical assay employed is based on measurement of total ATP turnover following enzyme incubation with substrate in the presence of ATP with the use of a luminescent detection reagent (Cambrex PKlight). The assays were performed in 1536-well white opaque plates.
The final volume was 7.5005 μL as prepared prepared from the addition of 5 ul of kinase reaction (p38 alpah+MapkapK2+ATP) with 0.0005 μL compound dissolved in DMSO, and 2.5 ul of the detection reagent. Assay buffer contains the following reagents to give final concentration in the assay: 200 mM Tris, 100 mM MgCl2, 1.5 mM EGTA, 4 mM CaCl2, 20 mM MOPS, 1 mM EDTA, 1% glycerol, 0.1% B-Mecaptoethanol, and 1 mg/ml BSA. Test compounds are pinned using proprietary pintool technology (Kalypsys, Inc) and delivered as […] amounts into the 5 ul mixture of active p38 alpha enzyme (Upstate Biotechnology) and MapkapK2 (Upstate Biotechnology) whole protein as a substrate for phosphorylation in the presence of 1.4 uM final concentration ATP. Reactions are incubated at 30C for 2 hours and detection reagent is added in 2.5 ul/well amounts. Assay is read using a Perkin Elmer Viewlux.

T1 sequence (Q16539 whole entry): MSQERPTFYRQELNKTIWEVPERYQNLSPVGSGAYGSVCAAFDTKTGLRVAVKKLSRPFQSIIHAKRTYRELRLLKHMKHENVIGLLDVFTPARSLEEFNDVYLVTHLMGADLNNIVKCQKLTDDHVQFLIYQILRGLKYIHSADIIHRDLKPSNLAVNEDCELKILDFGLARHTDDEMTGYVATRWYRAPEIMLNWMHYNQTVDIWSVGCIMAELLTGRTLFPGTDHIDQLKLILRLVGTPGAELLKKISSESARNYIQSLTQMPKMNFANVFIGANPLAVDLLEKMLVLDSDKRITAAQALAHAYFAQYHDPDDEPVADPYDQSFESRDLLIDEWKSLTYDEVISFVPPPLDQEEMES

SMILES	IC50
CC(C)NC(=O)c1csc(-c2oc(CNC(=O)OC(C)(C)C)nc2-c2ccc(F)cc2)n1 [Example 43, |4-(4-Fluoro-phenyl)-5-(4-isopropylcarbamoyl-thiazol-2-yl)-oxazol-2-ylmethyl|-carbamic acid tert-butyl ester]	> 1000 nM
CNC(=O)c1csc(-c2sc(C)nc2-c2ccc(F)cc2)n1 [Example 47, 4′-(4-Fluoro-phenyl)-2′-methyl-|2,5′|bithiazolyl-4-carboxylic acid methylamide]	≤ 1000 nM
CCNC(=O)c1csc(-c2sc(C)nc2-c2ccc(F)cc2)n1 [Example 48, 4′-(4-Fluoro-phenyl)-2′-methyl-|2,5′|bithiazolyl-4-carboxylic acid ethylamide]	≤ 1000 nM
Cc1nc(-c2ccc(F)cc2)c(-c2nc(C(=O)NC3CCC3)cs2)s1 [Example 50, 4′-(4-Fluoro-phenyl)-2′-methyl-|2,5′|bithiazolyl-4-carboxylic acid cyclobutylamide]	≤ 1000 nM
Cc1nc(-c2ccc(F)cc2)c(-c2nc(C(=O)NCC3CC3)cs2)s1 [Example 51, 4′-(4-Fluoro-phenyl)-2′-methyl-|2,5′|bithiazolyl-4-carboxylic acid cyclopropylmethyl-amide]	≤ 1000 nM
Cc1nc(-c2ccc(F)cc2)c(-c2nc(C(=O)NCCCO)cs2)s1 [Example 52, 4′-(4-Fluoro-phenyl)-2′-methyl-|2,5′|bithiazolyl-4-carboxylic acid (3-hydroxy-propyl)-amide]	≤ 1000 nM
COCCNC(=O)c1csc(-c2sc(C)nc2-c2ccc(F)cc2)n1 [Example 53, 4′-(4-Fluoro-phenyl)-2′-methyl-|2,5′|bithiazolyl-4-carboxylic acid (2-methoxy-ethyl)-amide]	≤ 1000 nM
CCC(CO)NC(=O)c1csc(-c2sc(C)nc2-c2ccc(F)cc2)n1 (centres unmarked) [Example 54, 4′-(4-Fluoro-phenyl)-2′-methyl-|2,5′|bithiazolyl-4-carboxylic acid (1-hydroxymethyl-propyl)-amide]	≤ 1000 nM
Cc1nc(-c2ccc(F)cc2)c(-c2nc(C(=O)NCc3ccccn3)cs2)s1 [Example 56, 4′-(4-Fluoro-phenyl)-2′-methyl-|2,5′|bithiazolyl-4-carboxylic acid (pyridin-2-ylmethyl)-amide]	≤ 1000 nM
Cc1nc(-c2ccc(F)cc2)c(-c2nc(C(=O)NCc3ccncc3)cs2)s1 [Example 57, 4′-(4-Fluoro-phenyl)-2′-methyl-|2,5′|bithiazolyl-4-carboxylic acid (pyridin-4-ylmethyl)-amide]	≤ 1000 nM
COc1ccc(CNC(=O)c2csc(-c3sc(C)nc3-c3ccc(F)cc3)n2)cc1OC [Example 60, 4′-(4-Fluoro-phenyl)-2′-methyl-|2,5′|bithiazolyl-4-carboxylic acid 3,4-dimethoxy-benzylamide]	> 1000 nM
CCNC(=O)c1csc(-c2c(-c3ccc(F)cc3)n[nH]c2C2CCNCC2)n1 [Example 63, 2-|3-(4-Fluoro-phenyl)-5-piperidin-4-yl-1H-pyrazol-4-yl|-thiazole-4-carboxylic acid ethylamide]	≤ 1000 nM
C#CCNC(=O)c1csc(-c2c(-c3ccc(F)cc3)n[nH]c2C2CCNCC2)n1 [Example 65, 2-|3-(4-Fluoro-phenyl)-5-piperidin-4-yl-1H-pyrazol-4-yl|-thiazole-4-carboxylic acid prop-2-ynylamide]	≤ 1000 nM
O=C(NCC1CC1)c1csc(-c2c(-c3ccc(F)cc3)n[nH]c2C2CCNCC2)n1 [Example 69, 2-|3-(4-Fluoro-phenyl)-5-piperidin-4-yl-1H-pyrazol-4-yl|-thiazole-4-carboxylic acid cyclopropylmethyl-amide]	≤ 1000 nM
Cc1[nH]nc(-c2ccc(F)cc2)c1-c1nc(C(=O)NCc2ccccn2)cs1 [Example 75, 2-|3-(4-Fluoro-phenyl)-5-methyl-1H-pyrazol-4-yl|-thiazole-4-carboxylic acid (pyridin-2-ylmethyl)-amide]	≤ 1000 nM
CC(C)NC(=O)c1csc(-c2[nH]c(CN3CCOCC3)nc2-c2ccc(F)cc2)n1 [Example 80, 2-|5-(4-Fluoro-phenyl)-2-morpholin-4-ylmethyl-3H-imidazol-4-yl|-thiazole-4-carboxylic acid isopropylamide]	≤ 1000 nM
CC(C)NC(=O)c1csc(-c2[nH]c(CN(C)C)nc2-c2ccc(F)cc2)n1 [Example 81, 2-|2-Dimethylaminomethyl-5-(4-fluoro-phenyl)-3H-imidazol-4-yl|-thiazole-4-carboxylic acid isopropylamide]	≤ 1000 nM
C#CCNC(=O)c1csc(-c2[nH]c(CN3CCNCC3)nc2-c2ccc(F)cc2)n1 [Example 82, 2-|5-(4-Fluoro-phenyl)-2-piperazin-1-ylmethyl-3H-imidazol-4-yl|-thiazole-4-carboxylic acid prop-2-ynylamide]	≤ 1000 nM
CC(C)NC(=O)c1csc(-c2[nH]c(CN3CCNCC3)nc2-c2ccc(F)cc2)n1 [Example 83, 2-|5-(4-Fluoro-phenyl)-2-piperazin-1-ylmethyl-3H-imidazol-4-yl|-thiazole-4-carboxylic acid isopropylamide]	≤ 1000 nM
CC(C)NC(=O)c1csc(-c2[nH]c(CO)nc2-c2ccc(F)cc2)n1 [Example 84, 2-|5-(4-Fluoro-phenyl)-2-hydroxymethyl-3H-imidazol-4-yl|-thiazole-4-carboxylic acid isopropylamide]	≤ 1000 nM
CC(=O)NCc1nc(-c2ccc(F)cc2)c(-c2nc(C(=O)NC(C)C)cs2)[nH]1 [Example 85, 2-|2-(Acetylamino-methyl)-5-(4-fluoro-phenyl)-3H-imidazol-4-yl|-thiazole-4-carboxylic acid isopropylamide]	≤ 1000 nM
C#CCNC(=O)c1csc(-c2c(-c3ccc(F)cc3)ncn2C)n1 [Example 87, 2-|5-(4-Fluoro-phenyl)-3-methyl-3H-imidazol-4-yl|-thiazole-4-carboxylic acid prop-2-ynylamide]	≤ 1000 nM

Second part, the compound after the results:

IC50	SMILES
≤ 1000 nM	Cc1nc(-c2ccc(F)cc2)c(-c2nc(C(=O)NCCO)cs2)s1 [Example 49, 4′-(4-Fluoro-phenyl)-2′-methyl-|2,5′|bithiazolyl-4-carboxylic acid (2-hydroxy-ethyl)-amide]
≤ 1000 nM	Cc1nc(-c2ccc(F)cc2)c(-c2nc(C(=O)NCc3cccnc3)cs2)s1 [Example 55, 4′-(4-Fluoro-phenyl)-2′-methyl-|2,5′|bithiazolyl-4-carboxylic acid (pyridin-3-ylmethyl)-amide]
> 1000 nM	Cc1nc(-c2ccc(F)cc2)c(-c2nc(C(=O)NCCCN3CCOCC3)cs2)s1 [Example 58, 4′-(4-Fluoro-phenyl)-2′-methyl-|2,5′|bithiazolyl-4-carboxylic acid (3-morpholin-4-yl-propyl)-amide]
≤ 1000 nM	Cc1nc(-c2ccc(F)cc2)c(-c2nc(C(=O)NCc3ccc4c(c3)OCO4)cs2)s1 [Example 59, 4′-(4-Fluoro-phenyl)-2′-methyl-|2,5′|bithiazolyl-4-carboxylic acid (benzo|1,3|dioxol-5-ylmethyl)-amide]
≤ 1000 nM	CC(C)NC(=O)c1csc(-c2c(-c3ccc(F)cc3)n[nH]c2C2CCNCC2)n1 [Example 61, 2-|3-(4-Fluoro-phenyl)-5-piperidin-4-yl-1H-pyrazol-4-yl|-thiazole-4-carboxylic acid isopropylamide]
≤ 1000 nM	O=C(NCc1cccnc1)c1csc(-c2c(-c3ccc(F)cc3)n[nH]c2C2CCNCC2)n1 [Example 67, 2-|3-(4-Fluoro-phenyl)-5-piperidin-4-yl-1H-pyrazol-4-yl|-thiazole-4-carboxylic acid (pyridin-3-ylmethyl)-amide]
> 1000 nM	O=C(O)c1csc(-c2c(-c3ccc(F)cc3)n[nH]c2C2CCNCC2)n1 [Example 70, 2-(3-(4-fluorophenyl)-5-(piperidin-4-yl)-1H-pyrazol-4-yl)thiazole-4-carboxylic acid]
≤ 1000 nM	CCNC(=O)c1csc(-c2c(-c3ccc(F)cc3)n[nH]c2C)n1 [Example 72, 2-|3-(4-Fluoro-phenyl)-5-methyl-1H-pyrazol-4-yl|-thiazole-4-carboxylic acid ethylamide]
≤ 1000 nM	Cc1[nH]nc(-c2ccc(F)cc2)c1-c1nc(C(=O)NCc2ccc3c(c2)OCO3)cs1 [Example 74, 2-|3-(4-Fluoro-phenyl)-5-methyl-1H-pyrazol-4-yl|-thiazole-4-carboxylic acid (benzo|1,3|dioxol-5-yl methyl)-amide]
≤ 1000 nM	Cc1[nH]nc(-c2ccc(F)cc2)c1-c1nc(C(=O)NCc2cccnc2)cs1 [Example 76, 2-|3-(4-Fluoro-phenyl)-5-methyl-1H-pyrazol-4-yl|-thiazole-4-carboxylic acid (pyridin-3-ylmethyl)-amide]
≤ 1000 nM	Cc1[nH]nc(-c2ccc(F)cc2)c1-c1nc(C(=O)NCc2ccncc2)cs1 [Example 77, 2-|3-(4-Fluoro-phenyl)-5-methyl-1H-pyrazol-4-yl|-thiazole-4-carboxylic acid (pyridin-4-ylmethyl)-amide]
≤ 1000 nM	CC(C)NC(=O)c1csc(-c2c(-c3ccc(F)cc3)ncn2C)n1 [Example 86, 2-|5-(4-Fluoro-phenyl)-3-methyl-3H-imidazol-4-yl|-thiazole-4-carboxylic acid isopropylamide]
> 1000 nM	CC(C)NC(=O)c1csc(-c2c(-c3ccc(F)cc3)ncn2C2CCN(Cc3ccccc3)CC2)n1 [Example 88, 2-|3-(1-Benzyl-piperidin-4-yl)-5-(4-fluoro-phenyl)-3H-imidazol-4-yl|-thiazole-4-carboxylic acid isopropylamide]
